Results from patent US5153218A, “N,N',N'-trisubstituted-bis-amino-3-methylene-2,4(3H,5H)-furandione inhibitors of acyl-CoA:cholesterol-acyl transferase” (American Home Products Corporation, priority 1991, dated 1992).
Like-named read-outs stand apart in the source and are kept apart here.

Legend:
[1] = test system: acyl-coenzyme A: cholesterol acyltransferase; assay: inhibition of acyl-coenzyme A: cholesterol acyltransferase in vitro (intracellular cholesterol esterification, procedure of Ross et al.); type: cell-based; details: for percent inhibition at a single concentration: unit assumed
Text: The ability of the compounds of this invention to inhibit acyl-coenzyme A: cholesterol acyltransferase was established in vitro by initially showing that they inhibited intracellular cholesterol esterification by subjecting them to the standard experimental test procedure of Ross et al., J. Biol. Chem. 259 815 (1984).

[2] = test system: 14C-Cholesterol Absorption; details: po
Experimental: Representative compounds were further tested in vivo to establish the percent inhibition of cholesterol absorption. In this study, normal rats were dosed (oral gavage) with ^14 C-cholesterol plus the test compound. Blood samples taken at six hours and/or intermittently up to twenty-four hours were analyzed and the percent inhibition of cholesterol absorption was calculated.

Plasma Cholesterol = assay: in vivo decrease of plasma cholesterol in cholesterol-cholic acid fed rats; details: oral gavage, four days
Experimental: In addition, representative compounds were studied in vivo in cholesterol-cholic acid fed rats to determine the percent decrease of cholesterol in their plasma. This study involves rats which are, prior to testing, trained for one week to eat over a four hour time period each day. Upon initiation of the experiment, the rats diet is supplemented with 1.0 percent cholesterol and 0.25 percent cholic acid. The rats are dosed with the test compound by oral gavage just prior to and just following the four hour feeding period. This is repeated for four days. On the fifth day, the rats are sacrificed and the total plasma cholesterol content is determined. The percent decrease in elevated plasma cholesterol levels is calculated in comparison with normal-fed controls.

Molecule `CCCCCCCC/C=C\CCCCCCCCN(Cc1ccc(C(C)(C)C)cc1)C(Nc1ccc(F)cc1)=C1C(=O)COC1=O` [Example 18, 3-[[[[4-(1,1-Dimethylethyl)phenyl]methyl]((Z)-9-octadecenyl)amino][(4-fluorophenyl)amino]methylene]-2,4(3H,5H)-furandione] has a percent inhibition at a single concentration ([1]; Conc. 25 mM (so in the source)) of 44%.

`CCCCCCCN(Cc1ccc(C(C)(C)C)cc1)C(Nc1c(C)cc(C)cc1C)=C1C(=O)COC1=O` [Example 15, 3-[[[[4-(1,1-Dimethylethyl)phenyl]methyl]heptylamino][(2,4,6-trimethylphenyl)amino]methylene]-2,4(3H,5H)-furandione] gave a percent inhibition at a single concentration ([1]; Conc. 25 mM (so in the source)) of 73%.

For `CCCCCCCN(Cc1ccc(C(C)(C)C)cc1)C(Nc1ccc(F)cc1F)=C1C(=O)COC1=O` [Example 14, 3-[[(2,4-Difluorophenyl)amino][[[4-(1,1-dimethylethyl)phenyl]methyl]heptylamino]methylene]-2,4(3H,5H)-furandione], the percent inhibition at a single concentration ([1]; Conc. 25 mM (so in the source)) was 39%.

`CCCCCCCN(Cc1ccc(C(C)(C)C)cc1)C(Nc1c(C)cc(N(C)C)cc1C)=C1C(=O)COC1=O` [Example 19] showed an IC50 [1] of 9.5 µM and a percent inhibition at a single concentration ([1]; Conc. 25 mM (so in the source)) of 77%.

With `CCCCCCCN(Cc1ccc(C(C)(C)C)cc1)C(Nc1ccc(Cl)cc1)=C1C(=O)COC1=O` [Example 17, 3-[[(4-Chlorophenyl)amino][[[4-(1,1-dimethylethyl)phenyl]methyl]heptylamino]methylene]-2,4(3H,5H)-furandione] the IC50 [1] was 24 µM and the percent inhibition at a single concentration ([1]; Conc. 25 mM (so in the source)) was 84%.

For `CCCCCC(C)N(Cc1ccc(C(C)(C)C)cc1)C(Nc1ccc(OC)cc1OC)=C1C(=O)COC1=O` (centres unmarked) [Example 20, 3-[[(2,4-Dimethoxyphenyl)amino][[[4-(1,1-dimethylethyl)phenyl]methyl](1-methylhexyl)amino]methylene]-2,4(3H,5H)-furandione], the IC50 [1] was 1.5 µM and the percent inhibition at a single concentration ([1]; Conc. 25 mM (so in the source)) was 94%.

`CCCCCCN(CCCCCC)C(Nc1ccc(-c2ccccc2)cc1)=C1C(=O)COC1=O` [Example 12, 3-[([1,1'-Biphenyl]-4-ylamino)(dihexylamino)methylene]-2,4(3H,5H)-furandione] was tested, and the IC50 [1] was 27 µM and the percent inhibition at a single concentration ([1]; Conc. 50 mM (so in the source)) was 90%.

`CCCCCCCN(Cc1ccc(C(C)(C)C)cc1)C(Nc1ccc(OC)cc1OC)=C1C(=O)COC1=O` [Example 3] was tested, and the IC50 [1] was 4 µM and the percent inhibition at a single concentration ([1]; Conc. 50 mM (so in the source)) was 90%.

In the case of `CCCCCCN(Cc1ccc(CC(C)C)cc1)C(Nc1cc(C(C)(C)C)c(O)c(C(C)(C)C)c1)=C1C(=O)COC1=O` [Example 23], the percent inhibition at a single concentration ([1]; Conc. 25 mM (so in the source)) is reported as 88%.

`CCCCCCN(CCCCCC)C(Nc1ccc(F)cc1)=C1C(=O)COC1=O` [Example 2, 3-[(Dihexylamino)[(4-fluorophenyl)amino]methylene]-2,4(3H,5H)furandione] showed a percent inhibition at a single concentration ([1]; Conc. 50 mM (so in the source)) of 57%.

In the case of `CCCCCCCN(Cc1ccc(OCCC(C)C)cc1)C(Nc1ccc(OC)cc1OC)=C1C(=O)COC1=O` [Example 6, 3-[[(2,4-Dimethoxyphenyl)amino][(heptyl)[[4-(3-methylbutoxy)phenyl]methyl]amino]methylene]-2,4(3H,5H)-furandione], the IC50 [1] is reported as 0.4 µM and the percent inhibition at a single concentration ([1]; Conc. 25 mM (so in the source)) is reported as 99%.

In the case of `CCCCCCCN(Cc1ccc(C(C)(C)C)cc1)C(Nc1ccc(F)cc1)=C1C(=O)COC1=O` [Example 1, 3-[[[[4-(1,1-Dimethylethyl)phenyl]methyl]heptylamino][(4-fluorophenyl)amino]methylene]-2,4(3H,5H)-furandione], the IC50 [1] is reported as 6 µM, the percent inhibition at a single concentration ([1]; Conc. 50 mM (so in the source)) is reported as 96% and the “% Inhibition of Absorption” value ([2]; 200 mg/kg) is reported as -74%.

In the case of `CCCCCCC(C)N(Cc1ccc(CC(C)(C)C)cc1)C(Nc1cc(C(C)(C)C)c(O)c(C(C)(C)C)c1)=C1C(=O)COC1=O` (centres unmarked) [Example 22, 3-[[[3,5-Bis(1,1-dimethylethyl)-4-hydroxyphenyl]amino][[[4-(2,2-dimethylpropyl)phenyl]methyl](1-methylheptyl)amino]methylene]-2,4(3H,5H)-furandione], the IC50 [1] is reported as 0.07 µM, the percent inhibition at a single concentration ([1]; Conc. 25 mM (so in the source)) is reported as 97% and the “% Decrease in Plasma Cholesterol” value (Plasma Cholesterol; 20 mg/kg) is reported as -80%.

`CCCCCCCN(Cc1ccc(CCCCCC)cc1)C(Nc1ccc(C(F)(F)F)cc1)=C1C(=O)COC1=O` [Example 16, 3-[[Heptyl[(4-hexylphenyl)methyl]amino][[4-(trifluoromethyl)phenyl]amino]methylene]-2,4(3H,5H)-furandione] showed a percent inhibition at a single concentration ([1]; Conc. 25 mM (so in the source)) of 56%.

Work on `CCCCCCN(CCCCCC)C(Nc1ccc(OC)cc1OC)=C1C(=O)COC1=O` [Example 9, 3-[(Dihexylamino)[(2,4-dimethoxyphenyl)amino]methylene]-2,4(3H,5H)-furandione] yielded an IC50 [1] of 25 µM and a percent inhibition at a single concentration ([1]; Conc. 50 mM (so in the source)) of 87%.

With `CCCCCCCC/C=C\CCCCCCCCNC(Nc1ccc(OC)cc1OC)=C1C(=O)COC1=O` [Example 4, 3-[[(2,4-Dimethoxyphenyl)amino]((Z)-9-octadecenylamino)methylene]-2,4(3H,5H)-furandione] the percent inhibition at a single concentration ([1]; Conc. 50 mM (so in the source)) was 63% and the “% Inhibition of Absorption” value ([2]; 200 mg/kg) was -14%.

`CCCCCC(C)N(Cc1ccc(OCCC(C)C)cc1)C(Nc1ccc(OC)cc1OC)=C1C(=O)COC1=O` (centres unmarked) [Example 21, 3-[[(2,4-Dimethoxyphenyl)amino][[[4-(3-methylbutoxy)phenyl]methyl](1-methylhexyl)amino]methylene]-2,4(3H,5H)-furandione] was tested, and the IC50 [1] was 4.9 µM, the percent inhibition at a single concentration ([1]; Conc. 25 mM (so in the source)) was 97% and the “% Decrease in Plasma Cholesterol” value (Plasma Cholesterol; 20 mg/kg) was -23%.

In the case of `CCCCCC(C)N(Cc1ccc(CC(C)(C)C)cc1)C(Nc1ccc(OC)cc1OC)=C1C(=O)COC1=O` (centres unmarked) [Example 7, 3-[[(2,4-Dimethoxyphenyl]amino][[[4-(2,2-dimethylpropyl)phenyl]methyl](1-methylhexyl)-amino]methylene]2,4(3H,5H)-furandione], the IC50 [1] is reported as 0.92 µM, the percent inhibition at a single concentration ([1]; Conc. 25 mM (so in the source)) is reported as 98% and the “% Decrease in Plasma Cholesterol” value (Plasma Cholesterol; 40 mg/kg) is reported as -26%. The “% Inhibition of Absorption” value ([2]; 20 mg/kg) was -62%.

`CCCCCCCN(Cc1ccc(CC(C)(C)C)cc1)C(Nc1c(OC)cc(OC)cc1OC)=C1C(=O)COC1=O` [Example 5, 3-[[[4-(2,2-Dimethylpropyl)phenylmethyl]heptylamino][(2,4,6-trimethoxyphenyl)amino]methylene]-2,4(3H,5H)-furandione] gave an IC50 [1] of 11 µM and a percent inhibition at a single concentration ([1]; Conc. 25 mM (so in the source)) of 67%.

`CCCCCC(C)N(Cc1ccc(CC(C)(C)C)cc1)C(Nc1cc(C(C)(C)C)c(O)c(C(C)(C)C)c1)=C1C(=O)COC1=O` (centres unmarked) [Example 8] was tested, and the IC50 [1] was 0.19 µM, the percent inhibition at a single concentration ([1]; Conc. 25 mM (so in the source)) was 99% and the “% Decrease in Plasma Cholesterol” value (Plasma Cholesterol; 20 mg/kg) was -71%. The “% Inhibition of Absorption” value ([2]; 20 mg/kg) was -72%.

In the case of `COc1ccc(NC(=C2C(=O)COC2=O)N(CCc2ccccc2)Cc2ccccc2)c(OC)c1` [Example 11, 3-[[(2,4-Dimethoxyphenyl)amino][(2-phenylethyl)(phenylmethyl)amino]methylene]-2,4(3H,5H)-furandione], the IC50 [1] is reported as > 30 µM and the percent inhibition at a single concentration ([1]; Conc. 50 mM (so in the source)) is reported as 72%.

Molecule `CCCCCCCN(Cc1ccc(C(C)(C)C)cc1)C(Nc1ccc(-c2ccccc2)cc1)=C1C(=O)COC1=O` [Example 13, 3-[([1,1'-Biphenyl]-4-ylamino)[[[4-(1,1-dimethylethyl)phenyl]methyl]heptylamino]methylene]-2,4(3H,5H)-furandione] has an IC50 [1] of 12 µM and a percent inhibition at a single concentration ([1]; Conc. 50 mM (so in the source)) of 91%.

`CCCCCCCC/C=C\CCCCCCCCNC(Nc1ccc(F)cc1)=C1C(=O)COC1=O` [Example 10, 3-[[(4-Fluorophenyl)amino]((Z)-9-octadecenylamino)methylene]2,4(3H,5H)-furandione] was tested, and the IC50 [1] was > 30 µM and the percent inhibition at a single concentration ([1]; Conc. 50 mM (so in the source)) was 61%.
